According to patent publication EP4737450A1 (Longwood Pharmaceuticals (Hangzhou) Co., Ltd, priority 2023, dated 2025):
Where two headings read alike, the source gives them in different places.

Biological target: T1, plasma kallikrein (PKa) (Homo sapiens, UniProt P03952)
T1 construct: purchased R & D 2497-SE
Assay: Inhibitory activity against plasma kallikrein in vitro (fluorescence intensity enzyme assay, Pro-Phe-Arg-AMC substrate)
Format: biochemical
Conditions: Pro-Phe-Arg-AMC substrate
Procedure: Test of the inhibitory activities of the compounds of the present invention against plasma kallikrein (PKa), KLK1 and FXIa in vitro.
The final concentrations of enzyme protein and Pro-Phe-Arg-AMC in the reaction mixture were 10 nM and 60 µM, respectively. The starting concentration of the positive reference substance Avoralstat was 100 nM, 3-fold dilution, 10 + 0 dose. 0.05 µL of compound in 100% DMSO was delivered to a 384-well plate by an acoustic liquid delivery technique (Echo665; nanoliter range). Compound duplex test. […] IC50 values and nonlinear regression curve fitting were obtained using GraphPad Prism software.

[1] = plasma kallikrein enzyme assay, read-out: PKa IC50

T1 sequence (P03952 391-638 limits assumed): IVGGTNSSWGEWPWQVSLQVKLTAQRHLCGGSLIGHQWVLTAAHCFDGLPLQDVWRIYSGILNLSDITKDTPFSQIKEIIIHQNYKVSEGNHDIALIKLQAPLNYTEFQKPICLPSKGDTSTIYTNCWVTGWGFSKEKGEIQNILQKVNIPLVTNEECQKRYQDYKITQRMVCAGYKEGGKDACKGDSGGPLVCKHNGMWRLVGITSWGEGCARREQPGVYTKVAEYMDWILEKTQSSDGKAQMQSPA
T1 sequence (P03952 20-390 partner limits assumed): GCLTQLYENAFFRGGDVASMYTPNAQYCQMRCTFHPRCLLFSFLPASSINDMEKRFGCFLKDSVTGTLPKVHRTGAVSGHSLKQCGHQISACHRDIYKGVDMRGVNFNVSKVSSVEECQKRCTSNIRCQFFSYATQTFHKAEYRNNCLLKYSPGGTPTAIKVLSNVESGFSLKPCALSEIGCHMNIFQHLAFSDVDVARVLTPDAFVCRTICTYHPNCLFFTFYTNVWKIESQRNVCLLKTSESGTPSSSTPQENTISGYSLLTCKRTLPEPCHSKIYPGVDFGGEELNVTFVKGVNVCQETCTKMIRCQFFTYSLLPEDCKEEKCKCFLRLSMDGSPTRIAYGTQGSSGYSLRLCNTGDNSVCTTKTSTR

Compound	IC50 [1] [nM]	IC50 (PKa IC50, plasma kallikrein enzyme assay) [nM]
N=C(N)c1ccc(CNC(=O)c2cnn(Cc3ccc(OCC4CC4)cc3)c2)cc1 [Compound 360]	3.29	
COc1ccnc(CNC(=O)c2cn(Cc3ccc(Cn4ccccc4=O)cc3)nc2N2CCOCC2)c1F [Compound 224]	28.2	
N-((3-fluoro-4-methoxypyridin-2-yl)methyl)-3-(methoxymethyl)-1-(4-((2-oxo-2,3-dihydro-1H-pyrrolo[3,2-b]pyridin-1-yl)methyl]benzyl)-1H-pyrazole-4-carboxamide [Compound 113]	> 100	
COCc1nn(Cc2ccc(-n3ccccc3=O)cc2)cc1C(=O)NCc1cn2c(n1)CNCC2 [Compound 145]	> 1000	
N=C(N)c1ccc(CNC(=O)c2cn(Cc3ccc(CC4CC4)cc3)nc2C(F)(F)F)c(F)c1 [Compound 275]	56	
Nc1ncc(CNC(=O)c2cnn(Cc3ccc(Cn4ccccc4=O)cc3)c2)s1 [Compound 36]	523	
C#Cc1nn(Cc2ccc(Cn3ccccc3=O)cc2)cc1C(=O)NCc1nccc(OC)c1F [Compound 85]	58.7	
N/C(=N\O)c1ccc(CNC(=O)c2cnn(Cc3ccc(CC4CC4)cc3)c2)cc1 [Compound 348, (Z)-1-(4-(cyclopropylmethyl)benzyl)-N-(4-(N'-hydroxycarbamoyl)benzyl)-1H-pyrazole-4-carboxamide]		3.75
COc1ccnc(CNC(=O)c2cn(Cc3ccc(Cn4ccccc4=O)cc3)nc2-c2cnccn2)c1F [Compound 301]	24.9	
Cc1nc(N)ncc1CNC(=O)c1ncn(Cc2ccc(Cn3cc(F)ccc3=O)cc2)n1 [Compound 31]	> 1000	
COCc1nn(Cc2ccc(CC3CC3)cc2)cc1C(=O)NCc1nccc(OC)c1F [Compound 91, 1-(4-(cyclopropylmethyl)benzyl)-N-((3-fluoro-4-methoxypyridin-2-yl)methyl)-3-(methoxymethyl)-1H-pyrazole-4-carboxamide]	> 100	
CNc1ccnc(CNC(=O)c2cn(Cc3ccc(Cn4ccccc4=O)cc3)nc2N2CC(F)(F)C2)c1F [Compound 265]	6.91	
COCc1nn(Cc2ccc(Oc3ccccc3)cc2)cc1C(=O)NCc1cc2ccncc2[nH]1 [Compound 185]	84.5	
Cc1cc(N)nc(C)c1CNC(=O)c1ncn(Cc2ccc(-n3ccccc3=O)cc2)n1 [Compound 63]	16.7	
CN(C)c1ccnc(CNC(=O)c2cn(Cc3ccc(Cn4ccccc4=O)cc3)nc2N2CC3(C2)OCC3(C)C)c1F [Compound 313]	3.24	
O=C(NCc1nccc(C2CC2)c1F)c1cn(Cc2ccc(Cn3ccccc3=O)cc2)nc1C1CC(F)(F)C1 [Compound 340]	48	
Cc1cc(N)nc(C)c1CNC(=O)c1ncn(Cc2ccc(CN3CCCCC3=O)cc2)n1 [Compound 78]	3.72	
Nc1ncc2cc(CNC(=O)c3cnn(Cc4ccc(Cn5ccccc5=O)cc4)c3)ccn12 [Compound 187]	10.8	
COCc1nn(Cc2ccc(Cn3c(=O)sc4cccc(F)c43)cc2)cc1C(=O)NCc1nccc(OC)c1F [Compound 160]	413	
Cc1cc2ncnn2c(C)c1CNC(=O)c1cn(Cc2ccc(Cn3ccccc3=O)cc2)nc1C(F)(F)F [Compound 206]	318	
COc1ccnc(CNC(=O)c2cn(Cc3ccc(Cn4ccccc4=O)cc3)nc2N2CC3(COC3)C2)c1F [Compound 288]	11.5	
COc1ccc(F)c(CNC(=O)c2cn(Cc3ccc(Cn4ccccc4=O)cc3)nc2C2(OC)CCC2)c1F [Compound 258]	63	
Cc1cnn(C)c1-c1nn(Cc2ccc(Cn3ccccc3=O)cc2)cc1C(=O)NCc1nccc(N(C)C)c1F [Compound 166]	4.59	
COc1ccnc(CNC(=O)c2cn(Cc3ccc(CN4C(=O)C5(CC5)c5ccc(F)cc54)cc3)nc2C(F)(F)F)c1F [Compound 181]	613	

Compound	IC50 [1] [nM]	IC50 (PKa IC50, plasma kallikrein enzyme assay) [nM]
N=C(N)c1ccc(CNC(=O)c2cn(Cc3ccc(Oc4ccccc4)cc3)nc2C(F)(F)F)cc1 [Compound 134]	4.47	
O=C(NCc1nccc(NC2CCC2)c1F)c1cn(Cc2ccc(Cn3ccccc3=O)cc2)nc1C1COC1 [Compound 273]	> 1000	
COCc1nn(Cc2ccc(Cn3ccccc3=O)cc2)cc1C(=O)NCc1cc2ccncc2n1C [Compound 135]	131	
COc1ccnc(CNC(=O)c2cn(Cc3ccc(CN4CC(F)(F)C4)cc3)nc2C(F)(F)F)c1F [Compound 124]	> 1000	
COCc1nn(Cc2ccc(CN3CCCCCC3)cc2)cc1C(=O)NCc1nccc(OC)c1F [Compound 102]	> 100	
COc1ccnc(CNC(=O)c2cn(Cc3ccc(Cn4ccccc4=O)cc3)nc2CN2CCC(OC)CC2)c1F [Compound 201]	10.8	
COc1ccc(F)c(CNC(=O)c2cn(Cc3ccc(Cn4cc(F)ccc4=O)c(F)c3)nc2C2CC(OC)C2)c1F (stereo not drawn) [Compound 227]	9.15	
COc1ccnc(CNC(=O)c2cn(Cc3ccc(Cn4ccccc4=O)cc3)nc2CN2C(=O)CC(C)(C)CC2=O)c1F [Compound 305]	12.4	
COc1ccc(F)c(CNC(=O)c2cn(Cc3ccc(Cn4cc(F)ccc4=O)cc3)nc2COCCN(C)C)c1F [Compound 219]	4.98	
COCc1nn(Cc2ccc(CN3CCCCC3=O)cc2)cc1C(=O)NCc1nccc(OC)c1F [Compound 77]	62.9	
COc1ccc(F)c(CNC(=O)c2cn(Cc3ccc(Cn4cc(F)ccc4=O)cc3)nc2COC2(C)COC2)c1F [Compound 236]	16.6	
Cc1cc(N)nc(C)c1CNC(=O)c1nc(Cc2ccc(Cn3ccccc3=O)cc2)nn1C [Compound 29]	> 1000	
O=C(NCc1nccc(N2CCC2)c1F)c1cn(Cc2ccc(Cn3ccccc3=O)cc2)nc1C1COC1 [Compound 346]	5.64	
O=C(NCc1ccc2ccncc2c1)c1cnn(Cc2ccc(Cn3ccccc3=O)cc2)c1 [Compound 197]	164	
COc1ccnc(CNC(=O)c2cn(Cc3ccc(Cn4ccccc4=O)cc3)nc2CN2CC(C)(C)CC2=O)c1F [Compound 174]	11.5	
COc1ccnc(CNC(=O)c2cn(Cc3ccc(Cn4ccccc4=O)cc3)nc2COC2CCOCC2)c1F [Compound 295]	16.3	
Nc1nnc(CNC(=O)c2cnn(Cc3ccc(Cn4ccccc4=O)cc3)c2)s1 [Compound 30]	> 1000	
COc1ccnc(CNC(=O)c2cn(Cc3ccc(Cn4ccccc4=O)cc3)nc2COCC2(F)COC2)c1F [Compound 235, N-((3-fluoro-4-methoxypyridin-2-yl)methyl)-3-((3-fluorooxetan-3-yl)methoxy)methyl]	3.33	
CCc1cc(N2CC3C(C2)C3(F)F)ccc1Cn1cc(C(=O)NCc2cc3ccncc3[nH]2)c(C(F)(F)F)n1 (stereo not drawn) [Compound 199]	19.8	
COc1ccc(F)c(CNC(=O)c2cn(Cc3ccc(Cn4ccccc4=O)cc3)nc2NC2(C)COC2)c1F [Compound 300]	1.94	
O=C(NCc1ncc2ccn(CCO)c2c1F)c1cnn(Cc2ccc(Cn3ccccc3=O)cc2)c1 [Compound 369, N-((7-fluoro-1-(2-hydroxyethyl)-1H-pyrrolo[3,2-c]pyridin-6-yl)methyl)-1-(4-((2-oxopyridin-1(2H)-yl)methyl]benzyl)-1H-pyrazole-4-carboxamide]	787	
COc1ccc(F)c(CNC(=O)c2cn(Cc3ccc(Cn4cc(F)ccc4=O)c(F)c3)nc2C2CC(F)(F)C2)c1F [Compound 228]	16.4	
COc1ccnc(CNC(=O)c2cn(Cc3ccc(Cn4c(C(F)(F)F)nccc4=O)cc3)nc2C(F)(F)F)c1F [Compound 198]	> 1000	
COCc1nn(Cc2ccc(N3CCOCC3=O)cc2)cc1C(=O)NCc1nccc(OC)c1F [Compound 89]	> 100	
